Measured values taken from ChEMBL document CHEMBL1201862, “PubChem BioAssay data set” (2004).
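Protocol summary: plate cells (96-well), add compound at 5 concentrations, incubate 48 h, interpolate endpoints linearly. Here, GI50 denotes the concentration required for 50% inhibition of growth.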 The source made the active and inactive calls. No stated cut-off is given here; in the data, active = GI50 up to about 1.1 µM and inactive = higher.

Legend:
Assay in all cases: NCI anticancer screen, dose series, 48 h
[1] = system: MDA-MB-435
[2] = system: UACC-257
[3] = system: MCF7
[4] = system: BT-549
[5] = system: SNB-19
[6] = system: Hs-578T
[7] = system: HL-60
[8] = system: Malme-3M
[9] = system: NCI/ADR-RES
[10] = system: DU-145
[11] = system: MOLT-4
[12] = system: CAKI-1
[13] = system: SN12C
[14] = system: OVCAR-4
[15] = system: SF-268
[16] = system: CCRF-CEM
[17] = system: SNB-75
[18] = system: TK-10
[19] = system: SK-MEL-2
[20] = system: RXF 393

## C/C(=N\NC(=S)Nc1ccc(C)cc1)c1nc2cccnc2[nH]1
[1]
  GI50: 2.94 µM (inactive)
[2]
  GI50: 2.38 µM (inactive)
[3]
  GI50: 0.721 µM (active)
[4]
  GI50: 1.23 µM (inactive)
[5]
  GI50: 3.2 µM (inactive)
[6]
  GI50: 10.8 µM (inactive)
[7]
  GI50: 2.22 µM (inactive)
[8]
  GI50: 4.86 µM (inactive)
[9]
  GI50: 4.04 µM (inactive)
[10]
  GI50: 2.59 µM (inactive)
[11]
  GI50: 1.27 µM (inactive)
[12]
  GI50: 1.84 µM (inactive)
[13]
  GI50: 2.32 µM (inactive)
[14]
  GI50: 0.25 µM (active)
[15]
  GI50: 0.587 µM (active)
[16]
  GI50: 0.452 µM (active)
[17]
  GI50: 5.77 µM (inactive)
[18]
  GI50: 2.67 µM (inactive)
[19]
  GI50: 10.8 µM (inactive)

## COC(=O)C1Cc2cc3c(cc2C1=O)CCC3 (stereo not drawn)
[1]
  GI50: > 100 µM (inactive)
[2]
  GI50: > 100 µM (inactive)
[3]
  GI50: > 100 µM (inactive)
[4]
  GI50: > 100 µM (inactive)
[5]
  GI50: > 100 µM (inactive)
[6]
  GI50: > 100 µM (inactive)
[7]
  GI50: > 100 µM (inactive)
[8]
  GI50: > 100 µM (inactive)
[9]
  GI50: > 100 µM (inactive)
[10]
  GI50: > 100 µM (inactive)
[11]
  GI50: 68.7 µM (inactive)
[12]
  GI50: > 100 µM (inactive)
[13]
  GI50: 90.6 µM (inactive)
[14]
  GI50: 42.1 µM (inactive)
[15]
  GI50: > 100 µM (inactive)
[16]
  GI50: 92.7 µM (inactive)
[17]
  GI50: > 100 µM (inactive)
[18]
  GI50: > 100 µM (inactive)
[19]
  GI50: > 100 µM (inactive)

## CSC1=NS(=O)(=O)c2cc(C(=O)NN(C)C(=O)c3cc4c(cc3Cl)SC(SC)=NS4(=O)=O)c(Cl)cc2S1
[2]
  GI50: > 10 µM (inactive)
[3]
  GI50: 9.75 µM (inactive)
[20]
  GI50: > 10 µM (inactive)
[4]
  GI50: > 10 µM (inactive)
[5]
  GI50: > 10 µM (inactive)
[6]
  GI50: > 10 µM (inactive)
[7]
  GI50: > 10 µM (inactive)
[8]
  GI50: > 10 µM (inactive)
[9]
  GI50: > 10 µM (inactive)
[10]
  GI50: > 10 µM (inactive)
[11]
  GI50: > 10 µM (inactive)
[12]
  GI50: > 10 µM (inactive)
[13]
  GI50: > 10 µM (inactive)
[14]
  GI50: > 10 µM (inactive)
[15]
  GI50: > 10 µM (inactive)
[16]
  GI50: > 10 µM (inactive)
[17]
  GI50: > 10 µM (inactive)
[18]
  GI50: > 10 µM (inactive)
[19]
  GI50: > 10 µM (inactive)

## CCN1C(NCCO)=NS(=O)(=O)c2ccccc21
[1]
  GI50: > 100 µM (inactive)
[2]
  GI50: > 100 µM (inactive)
[3]
  GI50: > 100 µM (inactive)
[20]
  GI50: > 100 µM (inactive)
[4]
  GI50: > 100 µM (inactive)
[5]
  GI50: > 100 µM (inactive)
[6]
  GI50: > 100 µM (inactive)
[7]
  GI50: > 100 µM (inactive)
[9]
  GI50: > 100 µM (inactive)
[10]
  GI50: > 100 µM (inactive)
[11]
  GI50: > 100 µM (inactive)
[12]
  GI50: > 100 µM (inactive)
[13]
  GI50: > 100 µM (inactive)
[14]
  GI50: > 100 µM (inactive)
[15]
  GI50: > 100 µM (inactive)
[16]
  GI50: > 100 µM (inactive)
[18]
  GI50: > 100 µM (inactive)
[19]
  GI50: > 100 µM (inactive)

## CC1(C)CC2=C(Sc3ccccc3N2)C(=O)C1C(=O)C(=O)Nc1cccc([N+](=O)[O-])c1 (stereo not drawn)
[1]
  GI50: > 100 µM (inactive)
[2]
  GI50: > 100 µM (inactive)
[3]
  GI50: > 100 µM (inactive)
[4]
  GI50: > 100 µM (inactive)
[5]
  GI50: > 100 µM (inactive)
[6]
  GI50: > 100 µM (inactive)
[7]
  GI50: > 100 µM (inactive)
[8]
  GI50: > 100 µM (inactive)
[9]
  GI50: > 100 µM (inactive)
[10]
  GI50: > 100 µM (inactive)
[11]
  GI50: 33 µM (inactive)
[12]
  GI50: > 100 µM (inactive)
[13]
  GI50: > 100 µM (inactive)
[14]
  GI50: 82.4 µM (inactive)
[15]
  GI50: > 100 µM (inactive)
[16]
  GI50: 0.0738 µM (active)
[17]
  GI50: > 100 µM (inactive)
[18]
  GI50: > 100 µM (inactive)
[19]
  GI50: > 100 µM (inactive)

## CC(C)(C)OC(=O)Cn1ncn(NC(=O)Cc2ccccc2)c1=O
[1]
  GI50: > 10 µM (inactive)
[2]
  GI50: > 10 µM (inactive)
[3]
  GI50: > 10 µM (inactive)
[4]
  GI50: > 10 µM (inactive)
[5]
  GI50: > 10 µM (inactive)
[6]
  GI50: > 10 µM (inactive)
[8]
  GI50: > 10 µM (inactive)
[9]
  GI50: > 10 µM (inactive)
[10]
  GI50: > 10 µM (inactive)
[11]
  GI50: > 10 µM (inactive)
[12]
  GI50: > 10 µM (inactive)
[13]
  GI50: > 10 µM (inactive)
[14]
  GI50: > 10 µM (inactive)
[15]
  GI50: > 10 µM (inactive)
[16]
  GI50: > 10 µM (inactive)
[18]
  GI50: > 10 µM (inactive)

## CCOC(=O)c1c(N)n(-c2ccccc2)c(=S)n(-c2ccccc2)c1=O
[1]
  GI50: > 100 µM (inactive)
[2]
  GI50: > 100 µM (inactive)
[3]
  GI50: > 100 µM (inactive)
[20]
  GI50: > 100 µM (inactive)
[4]
  GI50: > 100 µM (inactive)
[5]
  GI50: > 100 µM (inactive)
[6]
  GI50: > 100 µM (inactive)
[7]
  GI50: > 100 µM (inactive)
[8]
  GI50: > 100 µM (inactive)
[10]
  GI50: > 100 µM (inactive)
[11]
  GI50: > 100 µM (inactive)
[13]
  GI50: > 100 µM (inactive)
[14]
  GI50: > 100 µM (inactive)
[15]
  GI50: > 100 µM (inactive)
[16]
  GI50: > 100 µM (inactive)
[17]
  GI50: > 100 µM (inactive)
[18]
  GI50: > 100 µM (inactive)
[19]
  GI50: > 100 µM (inactive)

## Cc1ccc(S(=O)(=O)N2CCSCCN(S(=O)(=O)c3ccc(C)cc3)CCN(S(=O)(=O)c3ccc(C)cc3)CC2)cc1
[1]
  GI50: > 100 µM (inactive)
[3]
  GI50: 59.7 µM (inactive)
[20]
  GI50: 27.9 µM (inactive)
[4]
  GI50: 27.8 µM (inactive)
[5]
  GI50: 29.2 µM (inactive)
[6]
  GI50: 25.7 µM (inactive)
[7]
  GI50: > 100 µM (inactive)
[9]
  GI50: > 100 µM (inactive)
[10]
  GI50: > 100 µM (inactive)
[11]
  GI50: > 100 µM (inactive)
[13]
  GI50: > 100 µM (inactive)
[14]
  GI50: > 100 µM (inactive)
[15]
  GI50: 16.7 µM (inactive)
[16]
  GI50: > 100 µM (inactive)
[19]
  GI50: 25.9 µM (inactive)

## NCCCCC(NC(=O)C(N)Cc1ccc(O)cn1)C(=O)O (stereo not drawn)
[1]
  GI50: > 100 µM (inactive)
[2]
  GI50: > 100 µM (inactive)
[3]
  GI50: > 100 µM (inactive)
[20]
  GI50: > 100 µM (inactive)
[4]
  GI50: > 100 µM (inactive)
[5]
  GI50: > 100 µM (inactive)
[6]
  GI50: > 100 µM (inactive)
[7]
  GI50: > 100 µM (inactive)
[8]
  GI50: > 100 µM (inactive)
[9]
  GI50: > 100 µM (inactive)
[10]
  GI50: > 100 µM (inactive)
[11]
  GI50: > 100 µM (inactive)
[12]
  GI50: > 100 µM (inactive)
[13]
  GI50: > 100 µM (inactive)
[14]
  GI50: > 100 µM (inactive)
[15]
  GI50: > 100 µM (inactive)
[16]
  GI50: > 100 µM (inactive)
[18]
  GI50: > 100 µM (inactive)

## COC1CC(OC2C(C)OC(OC3C(C)OC(OC4C(O)CC(O[C@H]5CC[C@@]6(C)C(=CC[C@]7(O)[C@@H]6C[C@@H](OC(=O)/C=C/c6ccccc6)[C@@]6(C)[C@]7(O)CC[C@@]6(O)C(C)=O)C5)OC4C)CC3OC)CC2OC)OC(C)C1O (stereo partly drawn)
[1]
  GI50: > 6.25 µM (inactive)
[2]
  GI50: > 6.25 µM (inactive)
[3]
  GI50: > 6.25 µM (inactive)
[4]
  GI50: > 6.25 µM (inactive)
[5]
  GI50: > 6.25 µM (inactive)
[6]
  GI50: > 6.25 µM (inactive)
[7]
  GI50: > 6.25 µM (inactive)
[8]
  GI50: > 6.25 µM (inactive)
[9]
  GI50: > 6.25 µM (inactive)
[10]
  GI50: > 6.25 µM (inactive)
[11]
  GI50: > 6.25 µM (inactive)
[12]
  GI50: > 6.25 µM (inactive)
[13]
  GI50: > 6.25 µM (inactive)
[14]
  GI50: > 6.25 µM (inactive)
[15]
  GI50: > 6.25 µM (inactive)
[16]
  GI50: > 6.25 µM (inactive)
[17]
  GI50: > 6.25 µM (inactive)
[18]
  GI50: > 6.25 µM (inactive)
[19]
  GI50: > 6.25 µM (inactive)

## CC1(O)CCC(C(C)(C)O)CC1 (stereo not drawn) [TERPIN]
[1]
  GI50: > 100 µM (inactive)
[2]
  GI50: > 100 µM (inactive)
[3]
  GI50: > 100 µM (inactive)
[4]
  GI50: > 100 µM (inactive)
[5]
  GI50: > 100 µM (inactive)
[6]
  GI50: > 100 µM (inactive)
[7]
  GI50: > 100 µM (inactive)
[9]
  GI50: > 100 µM (inactive)
[10]
  GI50: > 100 µM (inactive)
[11]
  GI50: > 100 µM (inactive)
[12]
  GI50: > 100 µM (inactive)
[13]
  GI50: > 100 µM (inactive)
[14]
  GI50: > 100 µM (inactive)
[15]
  GI50: > 100 µM (inactive)
[16]
  GI50: > 100 µM (inactive)
[17]
  GI50: > 100 µM (inactive)
[18]
  GI50: > 100 µM (inactive)
[19]
  GI50: > 100 µM (inactive)
